Where no end group is shown, it is not given here.
Experiments:
G protein βγ subunits = experiment: GST-fusion protein pull-down of G protein βγ subunits, with or without CaM; type: binding, bovine; conditions: 2 pmol GST-fusion protein, 2 pmol Gβγ, CaM pre-incubated 30 minutes, 20 mM Tris-HCl, 70 mM NaCl, 0.1 mM CaCl2, pH 7.5; 4 or 5 experiments
Protocol: (§1) GST-fusion proteins were expressed in E. coli BL21 strain cells, and purified by affinity chromatography using immobilized glutathione sepharose 4B beads. Proteins were eluted by reduced glutathione in 50 mM Tris-HCl buffer (pH 8.0), and then concentrated with Centricon filters with 3 kDa MW cut-off. The eluted proteins were either used immediately or stored at −80°C for future use. For GST-fusion protein pull-down assays, fusion proteins were incubated with either cell lysates or purified protein(s) at 4°C for 3 hours, following which glutathione-sepharose 4B beads were added and incubation continued at 4°C for 1 hour. The beads were then recovered by brief centrifugation, followed by 4 washes with the corresponding incubation buffer. The fusion proteins and the proteins to which they were bound were then separated by SDS-PAGE, and identified by staining with Coomassie blue or by immunoblot.
Figure 7 Effect of CaM on G protein βγ subunit interaction with wild ATi3 or ATct. A. Interaction of G protein βγ subunits and ATi3 or ATct. 50 pmol of GST-ATi3(213–242) or GST-ATct(297–359) were incubated with different amounts of G protein Gβγ subunits in a buffer containing 20 mM Tris-HCl and 70 mM NaCl (pH 7.5). Interactions were assessed by GST-fusion protein pull-down assay, and blots were probed with a specific antibody against Gβ subunits (upper panel). 1 pmol of Gβγ subunit was interacted with different amounts of GST-ATi3(213–242) and GST-ATct(297–359). Interaction was assessed by immunoblot against Gβ subunits (lower panel). B. CaM inhibits the interaction between G protein Gβγ subunits and ATi3 or ATct. 2 pmol of GST-ATi3(213–242) or GST-ATct(297–359) were incubated with different concentrations of pure bovine brain CaM for 30 minutes in a buffer (20 mM Tris-HCl and 70 mM NaCl with 0.1 mM CaCl2, pH 7.5) following which 2 pmol of Gβγ subunits were added and incubated for 1 hour. GST-fusion proteins and their interacting proteins were pulled down by gluthathione-sepharose 4B beads, and subjected to immunoblot. Blots were probed with a specific antibody against Gβ subunits. The summary graph represents means ± S.E. from four independent experiments. C. Effects of CaM on the interactions between G protein βγ subunits and mutated ATi3 and ATct. The method is same as the described in the Figure 7B, except that we used mutated GST-fusion proteins, GST-ATi3(213–242)W219A, ATct(297–359)F309A, and ATct(297–359)F313A. The summary graph represents mean ± S.E. from 4 or 5 independent experiments.

[1] = test system: purified bovine brain CaM; experiment: GST-fusion protein pull-down with purified bovine brain CaM; type: binding; conditions: for relative binding efficiency for CaM / interaction with purified CaM (pull-down, in words): 50 pmol GST-fusion protein; for relative binding efficiency for CaM: purified bovine brain CaM, 100 mM Tris-HCl pH 7.5, 0.1 mM CaCl2, immunoblot density ratio, 5 independent experiments; for interaction with purified CaM (pull-down, in words): 50 pmol purified bovine CaM, 100 mM Tris-HCl pH 7.5, Ca2+ dependent (0.1 mM CaCl2 vs 1 mM EGTA), repeated five times; for relative binding efficiency for CaM versus wild type (in words): GST pull-down with fixed concentrations, data not shown
Protocol: as §1
Figure 1 Interactions of the i3 loop and carboxyl tail of the AT1A receptor with CaM. A, Construction of GST-fusion proteins. Upper panel illustrates a schematic structure of the AT1A receptor and constructs of GST-fusion proteins of the i3 loop and carboxyl tail of the receptor. The numbers represent positions of amino acids in the receptor. The GST-fusion proteins were constructed, expressed in E. coli, purified by using gluthathione-sepharose 4B beads, separated by SDS-PAGE, and stained by Coomassie blue (lower panel). B. Interactions of the i3 loop or carboxyl tail of AT1A receptor with CaM in rat brain lysates (upper panel) and with purified bovine brain CaM (lower panel). 50 pmol of GST-fusion proteins were incubated with 500 µg of rat brain lysates in 250 µl of buffer containing 20 mM Tris-HCl, 70 mM NaCl, pH 7.5 with 1 mM EGTA or 0.1 mM CaCl2. Interacting protein complexes were pulled down by gluthathione-sepharose 4B beads, and visualized by immunoblot with a specific anti-CaM antibody. The same methods were applied to interactions with pure bovine CaM (50 pmol), except that the buffer contained 100 mM Tris-HCl (pH 7.5). These experiments were repeated five times with similar results.
Figure 3 CaM binding sites in the i3 loop and carboxyl tail of the AT1A receptor. A, Schematic representation of constructs of GST-fusion proteins. Four GST-fusion proteins containing truncated peptides in the i3 loop and carboxyl tail of the receptor were constructed, including GST-N-terminus of the i3 loop (GST-ATi3N), GST-C-terminus of the i3 loop (GST-ATi3C), GST-N-terminus of carboxyl tail (GST-ATctN) and GST-C-terminus of carboxyl tail (GST-ATctC). The numbers under the first or the last residues represent amino acid positions in the receptor. B, Interaction of GST-fusion proteins with CaM. The GST-fusion proteins (50 pmol) were incubated with purified bovine CaM (50 pmol) in 250 µl of buffer containing 100 mM Tris-HCl (pH 7.5) with 0.1 mM CaCl2. Proteins were pulled down by gluthathione-sepharose 4B beads, following which immunoblots were probed with a specific anti-CaM antibody. These experiments were repeated five times with similar results.
Figure 5 Effect of point mutations in ATi3N or ATctN on their interactions with CaM. A. Modeled structures of CaM-ATi3(214–231) and CaM-ATct(302–317). The complexes of CaM and CaM binding motif in the i3 loop ATi3(214–231) or the carboxyl terminal tail ATct(302–317) of the receptor were modeled as described in Experimental Procedures. The target peptides are colored in red. […] Calcium atoms are shown as orange spheres. The N- and C- termini of CaM are also labeled. Helices and sheets in CaM are colored in green and yellow, respectively. B. Effect of point mutations at ATi3N or ATctN on their interaction with CaM. […]

CaM in rat brain lysates = experiment: GST-fusion protein pull-down from rat brain lysates; type: binding; conditions: 50 pmol GST-fusion protein, 500 µg rat brain lysates, 20 mM Tris-HCl, 70 mM NaCl, pH 7.5; Ca2+ dependent; repeated five times
Protocol: as §1
Figure 1 Interactions of the i3 loop and carboxyl tail of the AT1A receptor with CaM. A, Construction of GST-fusion proteins. Upper panel illustrates a schematic structure of the AT1A receptor and constructs of GST-fusion proteins of the i3 loop and carboxyl tail of the receptor. The numbers represent positions of amino acids in the receptor. […]

[2] = test system: AT1A receptor-CaM interaction; experiment: BRET between AT1A receptor-eYFP and RLuc-CaM / CaM-RLuc in HEK293 cells; type: cell-based, Human Embryonic Kidney 293 (HEK293) cells; conditions: 100 nM Ang II at 2, 4 and 6 minutes, compared with no Ang II
Protocol: We first stably transfected HEK293 cells with the AT1A receptor-eYFP vector by using lipofectamine 2000 solution according to the vendor’s (Invitrogen) instructions. […] The co-transfectants were detached with PBS buffer containing 1 mM EDTA, and distributed into 96 well plates at 10^5 cells/well (OptiPlate 96, Greiner Bio-One. Longwood, FL). Fluorescence measurements were acquired using a Victor2 multilabel plate reader (Perkin Elmer Life Sciences, Shelton, CT). […] The emission of light from YFP was measured both before and after stimulation with 100 nM of Ang II.
48 hours later, the cotransfectants were washed with saline pre-warmed at 37°C and calibrated in saline in a 37°C incubator for 30 minutes. […] Control co-transfectants were treated with equal amounts of saline (vehicle).

[3] = molecular target: T1, CaM purified from bovine brain (dansyl-CaM) (Bos taurus, UniProt P62157); experiment: Dansyl-CaM fluorescence emission spectrum shift; type: binding; conditions: dansyl-CaM 106 nM, 500 nM peptide + 0.1 mM calcium, 1 hour room temperature; shifted from 521 nm (EGTA); three experiments
T1 construct: CaM and G protein βγ subunits purified from bovine brain; purchased Calbiochem (La Jolla, CA); host or cells: bovine brain (tissue-purified)
Protocol: Dansyl-CaM was synthesized according to a standard method, [46], [47], [48]. 500 µl of CaM purified from bovine brain (2 mg/ml in a buffer containing 20 mM NH4HCO3, pH 7.4 and 1 mM CaCl2) was mixed with 1 µl of dansyl chloride (100 mg/ml in acetone) at 4°C C for 1 hour with agitation. The mixture was then applied to a Centricon 4 concentrator with 10 kDa MW cut-off to remove the unincorporated dye. Efficiencies of dansylation (0.18–0.34 mol of dansyl moiety per mol of CaM) were calculated by measurement of absorption at 320 nm using a molar extinction coefficient of 3400 M-1cm-1. For conformational studies of dansyl-CaM, fluorescence was monitored at room temperature with a SLMAminco model 8000 series 2 spectrometer (Spectronic Instruments, Rochester, NY) at an excitation wavelength of 340 nm, and emission wavelengths from 425 to 600 nm.
Figure 4 CaM binding motifs in the i3 loop and carboxyl terminal tail of the AT1A receptor. A, Alignment of CaM binding motifs. […] Fluorescence emission spectra of dansyl-CaM (106 nM) at an emission wavelength of 425–600 nm were measured in the presence of 10 mM EGTA, 0.1 mM calcium, 500 nM ATi3 (214–231) +0.1 mM calcium, and 500 nM ATct (302–317) +0.1 mM calcium. […] Spectra were corrected for background buffer fluorescence. […]

GST-ATi3(W219A): W219A mutant of GST-ATi3(213–242) ({GST}-TSYTLIAKALKKAYEIQKNKPRNDDIFRII)
Gβγ binding to GST-fusion protein in the presence of 2 pmol of CaM (G protein βγ subunits): 95%
Gβγ binding to GST-fusion protein in the presence of 10 pmol of CaM (G protein βγ subunits): 94%

GST-ATctN(297–324)F309A: F309A mutant of GST-ATctN(297–324) ({GST}-LNPLFYGFLGKKAKKYFLQLLKYIPPKA)
relative binding efficiency for CaM [1]: 29 % of wild type

GSTATi3(213–242): GST fused to the i3 loop of AT1A receptor, GST-TSYTLIWKALKKAYEIQKNKPRNDDIFRII ({GST}-TSYTLIWKALKKAYEIQKNKPRNDDIFRII)
interaction with purified CaM (pull-down, in words) [1]: associated
association with CaM from rat brain lysates (pull-down, in words) (CaM in rat brain lysates): associated
Gβγ binding to GST-fusion protein in the presence of 2 pmol of CaM (G protein βγ subunits): 77%
Gβγ binding to GST-fusion protein in the presence of 10 pmol of CaM (G protein βγ subunits): 60%

ATi3C (235–242): GST-C-terminus of the i3 loop, amino acids 235–242, peptide NDDIFRIT
interaction with purified CaM (pull-down, in words) [1]: no interactions with CaM

ATi3N (213–234): GST-N-terminus of the i3 loop, GST-TSYTLIWKALKKAYEIQKNKPR ({GST}-TSYTLIWKALKKAYEIQKNKPR)
interaction with purified CaM (pull-down, in words) [1]: interact with purified CaM

GST-ATi3N(213–234)L217A: L217A mutant of GST-ATi3N(213–234) ({GST}-TSYTAIWKALKKAYEIQKNKPR)
relative binding efficiency for CaM versus wild type (in words) [1]: did not have reduced binding efficiencies

ATctC (325–359): GST-C-terminus of carboxyl tail, GST-KSHSSLSTKMSTLSYRPSDNMSSSAKKPASCFEVE ({GST}-KSHSSLSTKMSTLSYRPSDNMSSSAKKPASCFEVE)
interaction with purified CaM (pull-down, in words) [1]: no interactions with CaM

Angiotensin II (DRVYIHPF; Angiotensin-2; UniProt P01019 25-32, looked up) [Ang II, AT1A receptor agonist]
effect on magnitude of the BRET ratio of the co-transfectants [2]: did not alter

ATctN (297–324): GST-N-terminus of carboxyl tail, GST-LNPLFYGFLGKKFKKYFLQLLKYIPPKA ({GST}-LNPLFYGFLGKKFKKYFLQLLKYIPPKA)
interaction with purified CaM (pull-down, in words) [1]: interact with purified CaM

GST-ATi3N(213–234)Y215A: Y215A mutant of GST-ATi3N(213–234) ({GST}-TSATLIWKALKKAYEIQKNKPR)
relative binding efficiency for CaM versus wild type (in words) [1]: did not have reduced binding efficiencies

GSTATi3N(213–234)W219A: W219A mutant of GST-ATi3N(213–234) ({GST}-TSYTLIAKALKKAYEIQKNKPR)
relative binding efficiency for CaM [1]: 32 % of wild type

GST-ATctN(297–324)F313A: F313A mutant of GST-ATctN(297–324) ({GST}-LNPLFYGFLGKKFKKYALQLLKYIPPKA)
relative binding efficiency for CaM [1]: 22 % of wild type

SYTLIWKALKKAYEIQKN [ATi3(214–231)]
λmax of dansyl-CaM fluorescence emission spectrum in presence of peptide [3]: 486 nm

GST-ATctN(297–324)Y312A: Y312A mutant of GST-ATctN(297–324) ({GST}-LNPLFYGFLGKKFKKAFLQLLKYIPPKA)
relative binding efficiency for CaM versus wild type (in words) [1]: did not have reduced binding efficiencies

Reference: article PMC3673938, “Two Distinct Calmodulin Binding Sites in the Third Intracellular Loop and Carboxyl Tail of Angiotensin II (AT1A) Receptor” (PLoS ONE, 2013)
